Measured values taken from US10106534B2 (CELGENE QUANTICEL RESEARCH, INC., priority 2014, dated 2018).
pIC50: −log10 of the molar value.

Assays:
[1] = target: JMJD3 (Homo sapiens, UniProt O15054); assay: In vitro enzyme inhibition assay for JMJD3 activity (TR-FRET); type: biochemical
Procedure: This assay determines the ability of a test compound to inhibit JMJD3 demethylase activity.
The enzymatic assay of JMJD3 activity is based upon Time Resolved-Fluorescence Resonance Energy Transfer (TR-FRET) detection. […] Reaction product was determined quantitatively by TR-FRET after the addition of detection reagent Phycolink Streptavidin-allophycocyanin (Prozyme) and Europium-anti-di-methylated histone H3 lysine 27 (H3K27me2) antibody (PerkinElmer) in the presence of 5 mM EDTA in LANCE detection buffer (PerkinElmer) at a final concentration of 50 nM and 1 nM, respectively.
The reaction mixture was incubated at room temperature for 30 minutes, and terminated by the addition of 6 μL of 5 mM EDTA in LANCE detection buffer containing 100 nM Phycolink Streptavidin-allophycocyanin and 2 nM Europium-anti-H3K27me2 antibody.

[2] = target: JMJD2C (Homo sapiens (Human), UniProt Q9H3R0); assay: In vitro enzyme inhibition assay for JMJD2C activity (TR-FRET); type: biochemical
In short: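 Baculovirus JMJD2C (AA 2-372), 0.3 nM, with 300 nM biotin-H3K9me3 peptide and 2 μM α-ketoglutarate in HEPES pH 7.3 containing Fe(II) and ascorbate, 30 min at room temperature, 11-point dilutions. H3K9me2 product by TR-FRET (Eu-antibody/streptavidin-APC, 665/615 ratio); IC50 fitted.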

[3] = system: KYSE-150 esophageal carcinoma cell line; assay: In vitro cell-based assay: cellular proliferation via BrdU incorporation (ELISA); design: species or system human; details: Homo sapiens, KYSE-150, 168 hours compound incubation
In short: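 KYSE-150 cells (JMJD2C-amplified; SMAD4 and TP53 mutant), 2,000/well, were treated after overnight attachment with an 11-point series (100 μM to 2 nM) for 168 h. Proliferation was read by BrdU ELISA (2 h labelling, anti-BrdU-peroxidase, TMB, 450 nm) and IC50 fitted.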

Sequence of JMJD2C (Q9H3R0 2-372): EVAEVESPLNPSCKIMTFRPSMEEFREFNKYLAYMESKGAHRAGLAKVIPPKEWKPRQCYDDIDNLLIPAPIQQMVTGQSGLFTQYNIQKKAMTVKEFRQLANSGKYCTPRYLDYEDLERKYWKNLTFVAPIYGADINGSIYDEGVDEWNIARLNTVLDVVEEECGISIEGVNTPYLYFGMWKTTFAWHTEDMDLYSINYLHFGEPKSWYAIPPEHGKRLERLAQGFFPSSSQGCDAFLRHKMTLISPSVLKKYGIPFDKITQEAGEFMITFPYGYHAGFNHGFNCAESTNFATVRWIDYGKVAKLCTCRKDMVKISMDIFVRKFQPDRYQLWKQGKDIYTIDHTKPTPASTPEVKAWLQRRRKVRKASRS

Cc1ccc(N(C)c2ccc3c(c2)OCC[C@H]3CNc2cnccc2C(=O)O)cc1 [Example 22, 3-({[(4R)-7-[methyl(4-methylphenyl)amino]-3,4-dihydro-2H-1-benzopyran-4-yl]methyl}amino)pyridine-4-carboxylic acid]
pIC50 [1]: 5.00 to 6.00 | pIC50 [2]: 6.00 to 7.00 | pIC50 [3]: ≥ 7.00

CN(c1ccc(Cl)cc1)c1ccc2c(c1)OCC[C@H]2CNc1cnccc1C(=O)O [Example 23, 3-({[(4R)-7-[(4-chlorophenyl)(methyl)amino]-3,4-dihydro-2H-1-benzopyran-4-yl]methyl}amino)pyridine-4-carboxylic acid]
pIC50 [1]: 5.00 to 6.00 | pIC50 [2]: 6.00 to 7.00 | pIC50 [3]: ≥ 7.00

CCN(c1ccccc1)c1ccc2c(c1)OCC[C@H]2CNc1cnccc1C(=O)O [Example 24, 3-({[(4R)-7-[ethyl(phenyl)amino]-3,4-dihydro-2H-1-benzopyran-4-yl]methyl}amino)pyridine-4-carboxylic acid]
pIC50 [1]: 5.00 to 6.00 | pIC50 [2]: 6.00 to 7.00 | pIC50 [3]: ≥ 7.00

O=C(O)c1ccncc1NCC1CCCc2nc(-c3ccccc3)ccc21 (stereo not drawn) [Example 25]
pIC50 [1]: 6.00 to 7.00 | pIC50 [2]: 6.00 to 7.00 | pIC50 [3]: < 5.00

CN(c1ccccc1)c1ccc2c(n1)CCCC2CNc1cnccc1C(=O)O (stereo not drawn) [Example 26, 3-[({2-[methyl(phenyl)amino]-5,6,7,8-tetrahydroquinolin-5-yl}methyl)amino]pyridine-4-carboxylic acid]
pIC50 [1]: 5.00 to 6.00 | pIC50 [2]: 6.00 to 7.00 | pIC50 [3]: 5.00 to 6.00

O=C(O)c1ccncc1NCC1CCOc2cc(-c3ccoc3)ccc21 (stereo not drawn) [Example 28, 3-({[7-(furan-3-yl)-3,4-dihydro-2H-1-benzopyran-4-yl]methyl}amino)pyridine-4-carboxylic acid]
pIC50 [1]: > 7.00 | pIC50 [2]: 6.00 to 7.00 | pIC50 [3]: 5.00 to 6.00

O=C(O)c1ccncc1NC[C@@H]1CCOc2cc(-c3ccsc3)ccc21 [Example 34, 3-({[(4R)-7-(thiophen-3-yl)-3,4-dihydro-2H-1-benzopyran-4-yl]methyl}amino)pyridine-4-carboxylic acid]
pIC50 [1]: 5.00 to 6.00 | pIC50 [2]: 6.00 to 7.00 | pIC50 [3]: 6.00 to 7.00

Cc1sccc1-c1ccc2c(c1)OCC[C@H]2CNc1cnccc1C(=O)O [Example 37, 3-({[(4R)-7-(2-methylthiophen-3-yl)-3,4-dihydro-2H-1-benzopyran-4-yl]methyl}amino)pyridine-4-carboxylic acid]
pIC50 [1]: 5.00 to 6.00 | pIC50 [2]: 5.00 to 6.00 | pIC50 [3]: 6.00 to 7.00

O=C(O)c1ccncc1NC[C@@H]1CCOc2cc(-c3ccccc3Cl)ccc21 [Example 40, 3-({[(4R)-7-(2-chlorophenyl)-3,4-dihydro-2H-1-benzopyran-4-yl]methyl}amino)pyridine-4-carboxylic acid]
pIC50 [1]: 5.00 to 6.00 | pIC50 [2]: 6.00 to 7.00 | pIC50 [3]: ≥ 7.00

O=C(O)c1ccncc1NC[C@@H]1CCOc2cc(Sc3ccc(F)cc3)ccc21 [Example 55, 3-({[(4R)-7-[(4-fluorophenyl)sulfanyl]-3,4-dihydro-2H-1-benzopyran-4-yl]methyl}amino)pyridine-4-carboxylic acid]
pIC50 [1]: 5.00 to 6.00 | pIC50 [2]: 6.00 to 7.00 | pIC50 [3]: 6.00 to 7.00

Cc1ccc(Oc2ccc3c(c2)CCC[C@H]3CNc2cnccc2C(=O)O)c(F)c1 [Example 66, 3-({[(1R)-6-(2-fluoro-4-methylphenoxy)-1,2,3,4-tetrahydronaphthalen-1-yl]methyl}amino)pyridine-4-carboxylic acid]
pIC50 [1]: 5.00 to 6.00 | pIC50 [2]: 6.00 to 7.00 | pIC50 [3]: ≥ 7.00

COc1ccc2c(c1C)CCC[C@H]2CNc1cnccc1C(=O)O [Example 99, 3-({[(1R)-6-methoxy-5-methyl-1,2,3,4-tetrahydronaphthalen-1-yl]methyl}amino)pyridine-4-carboxylic acid]
pIC50 [1]: 6.00 to 7.00 | pIC50 [2]: 6.00 to 7.00 | pIC50 [3]: 5.00 to 6.00

Cc1ccc(N(C)c2ccc3c(c2)CCC[C@H]3CNc2cnccc2C(=O)O)nc1 [Example 122, 3-({[(1R)-6-[methyl(5-methylpyridin-2-yl)amino]-1,2,3,4-tetrahydronaphthalen-1-yl]methyl}amino)pyridine-4-carboxylic acid]
pIC50 [1]: 5.00 to 6.00 | pIC50 [2]: 6.00 to 7.00 | pIC50 [3]: ≥ 7.00

Cc1cccc(N(C)c2ccc3c(c2)CCC[C@H]3CNc2cnccc2C(=O)O)n1 [Example 123, 3-({[(1R)-6-[methyl(6-methylpyridin-2-yl)amino]-1,2,3,4-tetrahydronaphthalen-1-yl]methyl}amino)pyridine-4-carboxylic acid]
pIC50 [1]: 5.00 to 6.00 | pIC50 [2]: 6.00 to 7.00 | pIC50 [3]: ≥ 7.00

C#Cc1ccc(N(C)c2ccc3c(c2)OCC[C@H]3CNc2cnccc2C(=O)O)cc1 [Example 126, 3-({[(4R)-7-[(4-ethynylphenyl)(methyl)amino]-3,4-dihydro-2H-1-benzopyran-4-yl]methyl}amino)pyridine-4-carboxylic acid]
pIC50 [1]: 5.00 to 6.00 | pIC50 [2]: 6.00 to 7.00 | pIC50 [3]: 6.00 to 7.00

CN(c1ccc(C2CC2)cc1)c1ccc2c(c1)OCC[C@H]2CNc1cnccc1C(=O)O [Example 134, 3-({[(4R)-7-[(4-cyclopropylphenyl)(methyl)amino]-3,4-dihydro-2H-1-benzopyran-4-yl]methyl}amino)pyridine-4-carboxylic acid]
pIC50 [1]: 5.00 to 6.00 | pIC50 [2]: 6.00 to 7.00 | pIC50 [3]: ≥ 7.00

Cc1ccc(N(C)c2ccc3c(c2)CCC[C@H]3CNc2cnccc2C(=O)O)cc1 [Example 140, 3-({[(1R)-6-[methyl(4-methylphenyl)amino]-1,2,3,4-tetrahydronaphthalen-1-yl]methyl}amino)pyridine-4-carboxylic acid]
pIC50 [1]: 5.00 to 6.00 | pIC50 [2]: 6.00 to 7.00 | pIC50 [3]: ≥ 7.00

Cc1ccc(N(C)c2ccc3c(c2)OCC[C@H]3CNc2cnccc2C(=O)O)nc1 [Example 145, 3-({[(4R)-7-[methyl(5-methylpyridin-2-yl)amino]-3,4-dihydro-2H-1-benzopyran-4-yl]methyl}amino)pyridine-4-carboxylic acid]
pIC50 [1]: 5.00 to 6.00 | pIC50 [2]: ≥ 7.00 | pIC50 [3]: ≥ 7.00

CN(c1ccc2c(c1)OCC[C@H]2CNc1cnccc1C(=O)O)c1ccc(C2CC2)cn1 [Example 153, 3-({[(4R)-7-[(5-cyclopropylpyridin-2-yl)(methyl)amino]-3,4-dihydro-2H-1-benzopyran-4-yl]methyl}amino)pyridine-4-carboxylic acid]
pIC50 [1]: 5.00 to 6.00 | pIC50 [2]: 6.00 to 7.00 | pIC50 [3]: ≥ 7.00

CCc1ccc(N(C)c2ccc3c(c2)OCC[C@H]3CNc2cnccc2C(=O)O)cc1 [Example 154, 3-({[(4R)-7-[(4-ethylphenyl)(methyl)amino]-3,4-dihydro-2H-1-benzopyran-4-yl]methyl}amino)pyridine-4-carboxylic acid]
pIC50 [1]: 5.00 to 6.00 | pIC50 [2]: 6.00 to 7.00 | pIC50 [3]: ≥ 7.00

Cc1cnc(N(C)c2ccc3c(c2)CCC[C@H]3CNc2cnccc2C(=O)O)nc1 [Example 156, 3-({[(1R)-6-[methyl(5-methylpyrimidin-2-yl)amino]-1,2,3,4-tetrahydronaphthalen-1-yl]methyl}amino)pyridine-4-carboxylic acid]
pIC50 [1]: 5.00 to 6.00 | pIC50 [2]: 6.00 to 7.00 | pIC50 [3]: 6.00 to 7.00

CCc1ccc(N(C)c2ccc3c(c2)OCC[C@H]3CNc2cnccc2C(=O)O)nc1 [Example 157, 3-({[(4R)-7-[(5-ethylpyridin-2-yl)(methyl)amino]-3,4-dihydro-2H-1-benzopyran-4-yl]methyl}amino)pyridine-4-carboxylic acid]
pIC50 [1]: 5.00 to 6.00 | pIC50 [2]: 6.00 to 7.00 | pIC50 [3]: ≥ 7.00

CN(c1ccc2c(c1)CCC[C@H]2CNc1cnccc1C(=O)O)c1cnn(C)c1 [Example 159, 3-({[(1R)-6-[methyl(1-methyl-1H-pyrazol-4-yl)amino]-1,2,3,4-tetrahydronaphthalen-1-yl]methyl}amino)pyridine-4-carboxylic acid]
pIC50 [1]: 5.00 to 6.00 | pIC50 [2]: 6.00 to 7.00 | pIC50 [3]: 5.00 to 6.00

CN(C)c1ccc(N(C)c2ccc3c(c2)CCC[C@H]3CNc2cnccc2C(=O)O)cc1 [Example 160, 3-({[(1R)-6-{[4-(dimethylamino)phenyl](methyl)amino}-1,2,3,4-tetrahydronaphthalen-1-yl]methyl}amino)pyridine-4-carboxylic acid]
pIC50 [1]: 5.00 to 6.00 | pIC50 [2]: 6.00 to 7.00 | pIC50 [3]: ≥ 7.00

COCc1ccc(N(C)c2ccc3c(c2)CCC[C@H]3CNc2cnccc2C(=O)O)cc1 [Example 164, 3-({[(1R)-6-{[4-(methoxymethyl)phenyl](methyl)amino}-1,2,3,4-tetrahydronaphthalen-1-yl]methyl}amino)pyridine-4-carboxylic acid]
pIC50 [1]: 5.00 to 6.00 | pIC50 [2]: 6.00 to 7.00 | pIC50 [3]: ≥ 7.00

CN(c1ccc(O)cc1)c1ccc2c(c1)CCC[C@H]2CNc1cnccc1C(=O)O [Example 165, 3-({[(1R)-6-[(4-hydroxyphenyl)(methyl)amino]-1,2,3,4-tetrahydronaphthalen-1-yl]methyl}amino)pyridine-4-carboxylic acid]
pIC50 [1]: 5.00 to 6.00 | pIC50 [2]: 6.00 to 7.00 | pIC50 [3]: 5.00 to 6.00
